Measured values as given in PubChem BioAssay AID1963825 (Molecular Pharmacology Branch, DTP, NCI, 2024).

Assay: Anticancer human tumor 997537-175-T-J1-PDC patient-derived colon adenocarcinoma cell line growth inhibition [POLQ]
Conditions: 997537-175-T-J1-PDC complex spheroid viability, combination with POLQ inhibitors; second compound 0.0316 µM; first compound 3.16 µM; active compounds read low
In short: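 Growth inhibition in 3D: complex spheroids (tumor PDC, HUVEC, MSC) treated with POLQ inhibitor combinations; where Cmax unknown, highest tested concentration 10 microM, except SN-38 at 1 microM.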
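Note: luminescence signal used as a surrogate for viable cells; spheroids exposed to drugs for seven days before readout.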

Compound	viability, T/C [%]
COc1cc(C2c3cc4c(cc3C(OC3OC5COC(C)OC5C(O)C3O)C3COC(=O)C23)OCO4)cc(OC)c1O (configuration not stated) + Cc1cccc(N(C)C(=O)C2C(O)CCN2c2nc(C)cc(C(F)(F)F)c2C#N)c1	75.2
CC1COCCN1c1cc(C2(S(C)(=N)=O)CC2)nc(-c2ccnc3[nH]ccc23)n1 (configuration not stated) + COC1C(OC(N)=O)C(O)C(Oc2ccc3c(O)c(NC(=O)c4ccc(O)c(CC=C(C)C)c4)c(=O)oc3c2C)OC1(C)C	90

Same assay, conditions: 997537-175-T-J1-PDC complex spheroid viability, combination with POLQ inhibitors; second compound 0.0316 µM; first compound 10 µM; active compounds read low

Compound	viability, T/C [%]
COc1cccc2c1C(=O)c1c(O)c3c(c(O)c1C2=O)CC(O)(C(=O)CO)CC3OC1CC(N)C(O)C(C)O1 (configuration not stated) + Nc1ccc(C#CCN(C(=O)Cc2ncc(C(F)(F)F)cc2C(F)(F)F)c2ccc(F)cc2)nn1	12.2
COc1cc(C2c3cc4c(cc3C(OC3OC5COC(C)OC5C(O)C3O)C3COC(=O)C23)OCO4)cc(OC)c1O (configuration not stated) + Cc1cccc(N(C)C(=O)C2C(O)CCN2c2nc(C)cc(C(F)(F)F)c2C#N)c1	68.9
CC1COCCN1c1cc(C2(S(C)(=N)=O)CC2)nc(-c2ccnc3[nH]ccc23)n1 (configuration not stated) + COC1C(OC(N)=O)C(O)C(Oc2ccc3c(O)c(NC(=O)c4ccc(O)c(CC=C(C)C)c4)c(=O)oc3c2C)OC1(C)C	49.9

Same assay, conditions: 997537-175-T-J1-PDC complex spheroid viability, combination with POLQ inhibitors; second compound 0.1 µM; first compound 0.0316 µM; active compounds read low

Compound	viability, T/C [%]
COc1cccc2c1C(=O)c1c(O)c3c(c(O)c1C2=O)CC(O)(C(=O)CO)CC3OC1CC(N)C(O)C(C)O1 (configuration not stated) + Nc1ccc(C#CCN(C(=O)Cc2ncc(C(F)(F)F)cc2C(F)(F)F)c2ccc(F)cc2)nn1	99.4
COc1cc(C2c3cc4c(cc3C(OC3OC5COC(C)OC5C(O)C3O)C3COC(=O)C23)OCO4)cc(OC)c1O (configuration not stated) + Cc1cccc(N(C)C(=O)C2C(O)CCN2c2nc(C)cc(C(F)(F)F)c2C#N)c1	96.3
CC1COCCN1c1cc(C2(S(C)(=N)=O)CC2)nc(-c2ccnc3[nH]ccc23)n1 (configuration not stated) + COC1C(OC(N)=O)C(O)C(Oc2ccc3c(O)c(NC(=O)c4ccc(O)c(CC=C(C)C)c4)c(=O)oc3c2C)OC1(C)C	94.5

Same assay, conditions: 997537-175-T-J1-PDC complex spheroid viability, combination with POLQ inhibitors; second compound 0.1 µM; first compound 0.1 µM; active compounds read low

Compound	viability, T/C [%]
COc1cccc2c1C(=O)c1c(O)c3c(c(O)c1C2=O)CC(O)(C(=O)CO)CC3OC1CC(N)C(O)C(C)O1 (configuration not stated) + Nc1ccc(C#CCN(C(=O)Cc2ncc(C(F)(F)F)cc2C(F)(F)F)c2ccc(F)cc2)nn1	114
COc1cc(C2c3cc4c(cc3C(OC3OC5COC(C)OC5C(O)C3O)C3COC(=O)C23)OCO4)cc(OC)c1O (configuration not stated) + Cc1cccc(N(C)C(=O)C2C(O)CCN2c2nc(C)cc(C(F)(F)F)c2C#N)c1	109
CC1COCCN1c1cc(C2(S(C)(=N)=O)CC2)nc(-c2ccnc3[nH]ccc23)n1 (configuration not stated) + COC1C(OC(N)=O)C(O)C(Oc2ccc3c(O)c(NC(=O)c4ccc(O)c(CC=C(C)C)c4)c(=O)oc3c2C)OC1(C)C	102

Same assay, conditions: 997537-175-T-J1-PDC complex spheroid viability, combination with POLQ inhibitors; second compound 0.1 µM; first compound 0.316 µM; active compounds read low

Compound	viability, T/C [%]
COc1cccc2c1C(=O)c1c(O)c3c(c(O)c1C2=O)CC(O)(C(=O)CO)CC3OC1CC(N)C(O)C(C)O1 (configuration not stated) + Nc1ccc(C#CCN(C(=O)Cc2ncc(C(F)(F)F)cc2C(F)(F)F)c2ccc(F)cc2)nn1	99.9
COc1cc(C2c3cc4c(cc3C(OC3OC5COC(C)OC5C(O)C3O)C3COC(=O)C23)OCO4)cc(OC)c1O (configuration not stated) + Cc1cccc(N(C)C(=O)C2C(O)CCN2c2nc(C)cc(C(F)(F)F)c2C#N)c1	94.6
CC1COCCN1c1cc(C2(S(C)(=N)=O)CC2)nc(-c2ccnc3[nH]ccc23)n1 (configuration not stated) + COC1C(OC(N)=O)C(O)C(Oc2ccc3c(O)c(NC(=O)c4ccc(O)c(CC=C(C)C)c4)c(=O)oc3c2C)OC1(C)C	82.7

Same assay, conditions: 997537-175-T-J1-PDC complex spheroid viability, combination with POLQ inhibitors; second compound 0.1 µM; first compound 1 µM; active compounds read low

Compound	viability, T/C [%]
COc1cccc2c1C(=O)c1c(O)c3c(c(O)c1C2=O)CC(O)(C(=O)CO)CC3OC1CC(N)C(O)C(C)O1 (configuration not stated) + Nc1ccc(C#CCN(C(=O)Cc2ncc(C(F)(F)F)cc2C(F)(F)F)c2ccc(F)cc2)nn1	70.6
COc1cc(C2c3cc4c(cc3C(OC3OC5COC(C)OC5C(O)C3O)C3COC(=O)C23)OCO4)cc(OC)c1O (configuration not stated) + Cc1cccc(N(C)C(=O)C2C(O)CCN2c2nc(C)cc(C(F)(F)F)c2C#N)c1	102
CC1COCCN1c1cc(C2(S(C)(=N)=O)CC2)nc(-c2ccnc3[nH]ccc23)n1 (configuration not stated) + COC1C(OC(N)=O)C(O)C(Oc2ccc3c(O)c(NC(=O)c4ccc(O)c(CC=C(C)C)c4)c(=O)oc3c2C)OC1(C)C	72.1

Same assay, conditions: 997537-175-T-J1-PDC complex spheroid viability, combination with POLQ inhibitors; second compound 0.1 µM; first compound 3.16 µM; active compounds read low

Compound	viability, T/C [%]
COc1cccc2c1C(=O)c1c(O)c3c(c(O)c1C2=O)CC(O)(C(=O)CO)CC3OC1CC(N)C(O)C(C)O1 (configuration not stated) + Nc1ccc(C#CCN(C(=O)Cc2ncc(C(F)(F)F)cc2C(F)(F)F)c2ccc(F)cc2)nn1	34.4
COc1cc(C2c3cc4c(cc3C(OC3OC5COC(C)OC5C(O)C3O)C3COC(=O)C23)OCO4)cc(OC)c1O (configuration not stated) + Cc1cccc(N(C)C(=O)C2C(O)CCN2c2nc(C)cc(C(F)(F)F)c2C#N)c1	75.1
CC1COCCN1c1cc(C2(S(C)(=N)=O)CC2)nc(-c2ccnc3[nH]ccc23)n1 (configuration not stated) + COC1C(OC(N)=O)C(O)C(Oc2ccc3c(O)c(NC(=O)c4ccc(O)c(CC=C(C)C)c4)c(=O)oc3c2C)OC1(C)C	80.3

Same assay, conditions: 997537-175-T-J1-PDC complex spheroid viability, combination with POLQ inhibitors; second compound 0.1 µM; first compound 10 µM; active compounds read low

Compound	viability, T/C [%]
COc1cccc2c1C(=O)c1c(O)c3c(c(O)c1C2=O)CC(O)(C(=O)CO)CC3OC1CC(N)C(O)C(C)O1 (configuration not stated) + Nc1ccc(C#CCN(C(=O)Cc2ncc(C(F)(F)F)cc2C(F)(F)F)c2ccc(F)cc2)nn1	7.13
COc1cc(C2c3cc4c(cc3C(OC3OC5COC(C)OC5C(O)C3O)C3COC(=O)C23)OCO4)cc(OC)c1O (configuration not stated) + Cc1cccc(N(C)C(=O)C2C(O)CCN2c2nc(C)cc(C(F)(F)F)c2C#N)c1	61.9
CC1COCCN1c1cc(C2(S(C)(=N)=O)CC2)nc(-c2ccnc3[nH]ccc23)n1 (configuration not stated) + COC1C(OC(N)=O)C(O)C(Oc2ccc3c(O)c(NC(=O)c4ccc(O)c(CC=C(C)C)c4)c(=O)oc3c2C)OC1(C)C	60.5

Same assay, conditions: 997537-175-T-J1-PDC complex spheroid viability, combination with POLQ inhibitors; second compound 0.316 µM; first compound 0.0316 µM; active compounds read low

Compound	viability, T/C [%]
COc1cccc2c1C(=O)c1c(O)c3c(c(O)c1C2=O)CC(O)(C(=O)CO)CC3OC1CC(N)C(O)C(C)O1 (configuration not stated) + Nc1ccc(C#CCN(C(=O)Cc2ncc(C(F)(F)F)cc2C(F)(F)F)c2ccc(F)cc2)nn1	110
COc1cc(C2c3cc4c(cc3C(OC3OC5COC(C)OC5C(O)C3O)C3COC(=O)C23)OCO4)cc(OC)c1O (configuration not stated) + Cc1cccc(N(C)C(=O)C2C(O)CCN2c2nc(C)cc(C(F)(F)F)c2C#N)c1	99.8
CC1COCCN1c1cc(C2(S(C)(=N)=O)CC2)nc(-c2ccnc3[nH]ccc23)n1 (configuration not stated) + COC1C(OC(N)=O)C(O)C(Oc2ccc3c(O)c(NC(=O)c4ccc(O)c(CC=C(C)C)c4)c(=O)oc3c2C)OC1(C)C	99.8

Same assay, conditions: 997537-175-T-J1-PDC complex spheroid viability, combination with POLQ inhibitors; second compound 0.316 µM; first compound 0.1 µM; active compounds read low

Compound	viability, T/C [%]
COc1cccc2c1C(=O)c1c(O)c3c(c(O)c1C2=O)CC(O)(C(=O)CO)CC3OC1CC(N)C(O)C(C)O1 (configuration not stated) + Nc1ccc(C#CCN(C(=O)Cc2ncc(C(F)(F)F)cc2C(F)(F)F)c2ccc(F)cc2)nn1	109
COc1cc(C2c3cc4c(cc3C(OC3OC5COC(C)OC5C(O)C3O)C3COC(=O)C23)OCO4)cc(OC)c1O (configuration not stated) + Cc1cccc(N(C)C(=O)C2C(O)CCN2c2nc(C)cc(C(F)(F)F)c2C#N)c1	102
CC1COCCN1c1cc(C2(S(C)(=N)=O)CC2)nc(-c2ccnc3[nH]ccc23)n1 (configuration not stated) + COC1C(OC(N)=O)C(O)C(Oc2ccc3c(O)c(NC(=O)c4ccc(O)c(CC=C(C)C)c4)c(=O)oc3c2C)OC1(C)C	112

Same assay, conditions: 997537-175-T-J1-PDC complex spheroid viability, combination with POLQ inhibitors; second compound 0.316 µM; first compound 0.316 µM; active compounds read low

Compound	viability, T/C [%]
COc1cccc2c1C(=O)c1c(O)c3c(c(O)c1C2=O)CC(O)(C(=O)CO)CC3OC1CC(N)C(O)C(C)O1 (configuration not stated) + Nc1ccc(C#CCN(C(=O)Cc2ncc(C(F)(F)F)cc2C(F)(F)F)c2ccc(F)cc2)nn1	98.8
COc1cc(C2c3cc4c(cc3C(OC3OC5COC(C)OC5C(O)C3O)C3COC(=O)C23)OCO4)cc(OC)c1O (configuration not stated) + Cc1cccc(N(C)C(=O)C2C(O)CCN2c2nc(C)cc(C(F)(F)F)c2C#N)c1	96.3
CC1COCCN1c1cc(C2(S(C)(=N)=O)CC2)nc(-c2ccnc3[nH]ccc23)n1 (configuration not stated) + COC1C(OC(N)=O)C(O)C(Oc2ccc3c(O)c(NC(=O)c4ccc(O)c(CC=C(C)C)c4)c(=O)oc3c2C)OC1(C)C	105
